Each block holds one sequence with its values, some of them ahead of it.
Tests used:
[1] = biological target: T1, aiPLA2 activity of recombinant human Prdx6 (Homo sapiens, UniProt P30041); assay: aiPLA2 (PLA2) activity of recombinant human Prdx6 in vitro, 3H-DPPC liposome substrate; assay type: biochemical; settings: for Activity (aiPLA2 of recombinant hPrdx6), human-derived peptides: deletions from 16-aa human-derived SP-A peptide, no-peptide control 92.0; for Activity (aiPLA2 of recombinant hPrdx6), human-derived peptides / Activity (aiPLA2 of recombinant hPrdx6), deletion from C-term / Activity (aiPLA2 of recombinant hPrdx6), deletion from N-term: one assay done in duplicate; for Activity (aiPLA2 of recombinant hPrdx6), deletion from C-term: peptides deleted from C-terminus of 16-aa rat-derived SP-A peptide, and scrambled peptide; for Activity (aiPLA2 of recombinant hPrdx6), deletion from C-term / Activity (aiPLA2 of recombinant hPrdx6), deletion from N-term: no-peptide control 94.8; for Activity (aiPLA2 of recombinant hPrdx6), deletion from N-term: peptides deleted from N-terminus of 16-aa rat-derived SP-A peptide, 3H-DPPC liposomes, 60 min
T1 sequence (P30041 1-224): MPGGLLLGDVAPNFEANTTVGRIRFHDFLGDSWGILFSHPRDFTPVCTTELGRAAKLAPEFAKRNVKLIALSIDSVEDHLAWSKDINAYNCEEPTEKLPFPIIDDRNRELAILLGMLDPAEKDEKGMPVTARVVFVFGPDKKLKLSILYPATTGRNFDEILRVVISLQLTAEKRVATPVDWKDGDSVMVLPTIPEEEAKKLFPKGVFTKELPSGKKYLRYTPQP
Method: (§1) The PLA2 activity of Prdx6 was measured as described previously. The substrate was dipalmitoylphosphatidylcholine (DPPC) with ^3H-9,10-palmitate in the sn-2 position of DPPC incorporated into lung surfactant-like liposomes as described above; substrate was incubated with enzyme for 60 min and activity was calculated from the liberation of ^3H-palmitate as measured by scintillation counting.
The effect of the PIP peptides on the aiPLA2 activity of human recombinant Prdx6 was determined by in vitro assay; the effective concentration of inhibitor was corrected for purity of the PIP preparation. Saturating concentrations of all three peptides (PIP-1, PIP-2, PIP-3) inhibited aiPLA2 activity by ~70% (Figure 2). The basis for the remaining 30% of activity that was not inhibited is unclear.

[2] = biological target: T1, aiPLA2 activity of recombinant human Prdx6; assay: Chemical stability of dry powder on laboratory shelf, read out as inhibition of aiPLA2 activity; assay type: physicochemical; settings: room temperature, nine months, data not shown
Excerpt: These peptides have a molecular mass of 1156–1178 with a predicted isoelectric point in the slightly basic range. Each of the three peptides contains four hydrophobic amino acid residues, with two of those on the same surface, and one negatively charged hydrophilic aa. The PIP-2 sequence has three while PIPs-1 and -3 have only two positively charged aa. PIP-1 is slightly more hydrophobic than the other two peptides but, in our experience, all three peptides readily dissolve in aqueous solution. […] No antigenic determinants were identified in these peptides as determined by the free on-line program provided by the Immunomedicine Group of the Universidad Complutense (Madrid, Spain). The chemical stability of PIP-2 was tested by placing the dry powder on the laboratory shelf at room temperature; its inhibition of the aiPLA2 activity of recombinant human Prdx6 was unchanged when measured after nine months of shelf storage indicating good stability of the peptide as a dry powder (data not shown); stability of the other peptides was not tested.

[3] = biological target: T2, aiPLA2 activity of lung homogenate (Mus musculus, UniProt O08709); assay: aiPLA2 activity of homogenate of isolated mouse lungs perfused with PIP-2; settings: inferred from lack of effect without liposomal carrier in lungs
T2 construct: from tissue; host or cells: mouse (C57Bl/6) lung homogenate
T2 sequence (O08709 1-224): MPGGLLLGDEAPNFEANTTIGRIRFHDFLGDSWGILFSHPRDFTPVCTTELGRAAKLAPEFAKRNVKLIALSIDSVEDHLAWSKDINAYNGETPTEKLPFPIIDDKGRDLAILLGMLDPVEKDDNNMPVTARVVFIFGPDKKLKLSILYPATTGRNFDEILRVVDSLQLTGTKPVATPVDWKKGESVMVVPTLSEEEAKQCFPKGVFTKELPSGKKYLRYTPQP
Method: as §1
To confirm the requirement for liposomes as a delivery vehicle, lungs were perfused for 15 min with PIP-2 incorporated or not into liposomes, then perfused with fresh medium to clear extracellular PIP-2, and then homogenized and assayed for aiPLA2 activity. PIP-2 administered without liposomes had no effect on aiPLA2 activity of the lung homogenate while PIP-2 in liposomes inhibited activity by ~80% (Table 5).

lung aiPLA2 activity = biological target: T3, lung aiPLA2 activity (Mus musculus, UniProt O08709); assay: Lung aiPLA2 activity after a single IT or IV dose in mice in vivo; settings: single dose in liposomes, estimated
T3 construct: from tissue; host or cells: mouse (C57Bl/6) lung homogenate
T3 sequence (O08709 1-224): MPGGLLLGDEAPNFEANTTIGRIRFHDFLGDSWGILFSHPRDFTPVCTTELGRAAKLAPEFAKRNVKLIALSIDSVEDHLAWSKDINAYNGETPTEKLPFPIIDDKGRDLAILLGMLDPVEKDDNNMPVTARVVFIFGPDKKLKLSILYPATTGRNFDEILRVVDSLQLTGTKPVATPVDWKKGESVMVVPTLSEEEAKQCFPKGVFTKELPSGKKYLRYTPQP
Method: For administration to mice, peptides were incorporated into liposomes that were prepared as previously described. Liposome composition was dipalmitoylphosphatidylcholine (DPPC): egg phosphatidylcholine: phosphatidylglycerol: cholesterol in the molar ratio 50:25:10:15. To measure the in vivo effect of the peptides, mice were injected with PIP-2 by either the intratracheal (IT) or the intravenous (IV) route and were sacrificed at intervals; lungs were removed from mice and homogenized for measurement of aiPLA2 activity.
as §1
To determine the effect and duration of a single dose of PIP-2 on aiPLA2 activity of mouse lungs in vivo, mice were injected with PIP-2 in liposomes by either the intratracheal (IT) or the intravenous (IV) route; individual lungs were removed at intervals, homogenized, and assayed for aiPLA2 activity. […]
Figure 4 Persistence and stability of PIP-2 in vivo. […] Lungs were harvested at intervals between 4 and 72 h after the PIP-2 administration, homogenized, and analyzed for aiPLA2 activity. […]

[4] = biological target: T4, PLA2 activity of Prdx6 (aiPLA2) (Mus musculus, UniProt O08709); assay: PLA2 activity of lung homogenate at pH 4 without Ca2+ (aiPLA2), PIP-2 added to the assay; assay type: biochemical; settings: wild type mouse lung homogenate, no Ca2+; no inhibitor 8.7 ± 0.16; mean ± range, n = 2
T4 construct: from tissue; host or cells: mouse (C57Bl/6) lung homogenate
T4 sequence (O08709 2-224): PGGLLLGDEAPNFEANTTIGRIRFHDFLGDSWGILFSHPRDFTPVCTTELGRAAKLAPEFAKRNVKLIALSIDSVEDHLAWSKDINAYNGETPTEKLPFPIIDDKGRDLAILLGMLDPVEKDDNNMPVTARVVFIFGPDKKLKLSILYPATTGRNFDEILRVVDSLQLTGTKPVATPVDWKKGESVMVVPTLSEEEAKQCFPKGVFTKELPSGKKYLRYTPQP
Method: as §1
(§2) Lung cells, like those of other organs, have multiple PLA2 enzymes. We evaluated the specificity of PIP-2 for inhibition of Prdx6 by measuring aiPLA2 activity in the lung homogenate of wild type and D140A-Prdx6 mutant mice. […] Measurement of PLA2 activity at pH 4 in the absence of Ca^2+ is relatively specific for the PLA2 activity of Prdx6 (aiPLA2). This activity was inhibited by 91% following addition of PIP-2 to the assay of the lung homogenate (Table 6). Although Prdx6 has relatively little PLA2 activity when measured at pH 7, other lung PLA2 enzymes, some of which are Ca^2+-dependent for activity, show activity at neutral pH; this activity was not affected by mutation of D140 in Prdx6 (Table 6). Unlike the effect of PIP-2 on aiPLA2 activity at pH 4, the addition of PIP-2 had no effect on activity of the lung PLA2 enzymes that are active at pH 7. Thus, aiPLA2 appears to be the only PLA2 enzyme, at least in the lung, that is inhibited by PIP-2.

[5] = biological target: T5, PLA2 activity of Prdx6 (aiPLA2) (Mus musculus, UniProt O08709, D140A); assay: as above; assay type: biochemical; settings: D140A-Prdx6 knock-in mouse lung homogenate, no Ca2+; no inhibitor 0.2 ± 0.03; mean ± range, n = 2
T5 construct: from tissue; host or cells: mouse (C57Bl/6) lung homogenate
T5 sequence (O08709 2-224 D140A): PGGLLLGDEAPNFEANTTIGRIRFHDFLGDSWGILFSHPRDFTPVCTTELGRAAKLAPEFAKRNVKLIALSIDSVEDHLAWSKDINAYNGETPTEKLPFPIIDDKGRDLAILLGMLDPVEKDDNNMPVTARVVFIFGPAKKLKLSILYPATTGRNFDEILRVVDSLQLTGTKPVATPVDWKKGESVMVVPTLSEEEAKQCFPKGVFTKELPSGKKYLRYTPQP
Method: as §1, §2

[6] = system: lung PLA2 enzymes that are active at pH 7; assay: PLA2 activity of lung homogenate at pH 7 with Ca2+ (other lung PLA2 enzymes), PIP-2 added to the assay; assay type: biochemical, mouse
Method: as §1, §2

Sequence: DEELQTEL [8-aa C-terminal deletion of rat 16-aa peptide]
- Activity (aiPLA2 of recombinant hPrdx6), deletion from C-term [1]: 93.6 nmol/min/mg Prot.

Sequence: DEELQTELYEIKHQ [14-aa C-terminal deletion of rat 16-aa peptide]
- Activity (aiPLA2 of recombinant hPrdx6), deletion from C-term [1]: 102 nmol/min/mg Prot.

Sequence: DEELQTELYEIKHQIL
- Activity (aiPLA2 of recombinant hPrdx6), deletion from C-term [1]: 32.0 nmol/min/mg Prot.
- Activity (aiPLA2 of recombinant hPrdx6), deletion from N-term [1]: 32.0 nmol/min/mg Prot.

Sequence: ELYEIKHQI [9-aa peptide lacking the C-terminal Leu]
- Activity (aiPLA2 of recombinant hPrdx6), deletion from C-term [1]: 89.6 nmol/min/mg Prot.

Sequence: LELDEEITEYQKQLHI [Scrambled peptide, scrambled 16-aa control peptide, reference compound]
- Activity (aiPLA2 of recombinant hPrdx6), deletion from C-term [1]: 93.5 nmol/min/mg Prot.

Sequence: LHDFRHQIL [PIP-2]
- Activity (aiPLA2 of recombinant hPrdx6), human-derived peptides [1]: 29.9 nmol/min/mg Prot.
- Inhibition of aiPLA2 activity at saturating concentrations of peptide ([1]; recombinant human Prdx6, Figure 2, mean + SEM, n = 3): ~ 70%
- Concentration of peptide for inhibition of aiPLA2 activity by 50% ([1]; recombinant human Prdx6, concentration corrected for purity of the PIP preparation, Figure 2, n = 3): ~ 6.6 µg/mg Prdx6
- Chemical stability: inhibition of aiPLA2 activity after shelf storage [2]: unchanged
- Ability to cross the cell membrane [3]: not able to cross the cell membrane
- Half-time for recovery of lung aiPLA2 activity (decrease of in vivo inhibition) (lung aiPLA2 activity): ~ 50 h
- PLA2 activity, pH 4, WT [4]: 1.6 ± 0.10 nmol/min/mg Prot.
- PLA2 activity, pH 4, D140A-Prdx6 [5]: 0.2 ± 0.06 nmol/min/mg Prot.
- PLA2 activity, pH 7 + Ca2+, D140A-Prdx6 ([6]; D140A-Prdx6 knock-in mouse lung homogenate, no inhibitor 8.3 ± 0.26, mean ± range, n = 2): 8.5 ± 0.10 nmol/min/mg Prot.
- Effect on activity of lung PLA2 enzymes active at pH 7 ([6]; PIP-2 added to assay of lung homogenate): no effect

Continued, values first:

- Activity (aiPLA2 of recombinant hPrdx6), human-derived peptides [1]: 45.0 nmol/min/mg Prot.
Sequence: DEELQATLHDFRHQIL [16 aa human SP-A-derived peptide]

- Activity (aiPLA2 of recombinant hPrdx6), deletion from N-term [1]: 33.2 nmol/min/mg Prot.
Sequence: ELQTELYEIKHQIL [14-aa N-terminal deletion of rat 16-aa peptide]

- Activity (aiPLA2 of recombinant hPrdx6), deletion from N-term [1]: 28.6 nmol/min/mg Prot.
Sequence: ELYEIKHQIL [10-aa N-terminal deletion of rat 16-aa peptide]

Reference: paper PMC6317155, “Identification of Small Peptides that Inhibit NADPH Oxidase (Nox2) Activation” (Antioxidants, 2018)
